{"source": "patent US20250136689A1", "about": "“COMPOSITIONS FOR AND METHODS OF TREATING HEMATOLOGICAL CANCERS” (Duke University, priority 2022, published 2025)", "key": {"various cancer cells": {"test_system": "various cancer cells", "conditions": "various cancer cells in vitro; versus irinotecan; cited from earlier work"}, "[1]": {"test_system": "c1498 murine AML (Acute Myeloid Leukemia) cells", "assay": "Survival of FACS-sorted phosphatidylserine-positive c1498 AML cells", "type": "cell-based", "conditions": "Mus musculus, c1498 cells treated with cytarabine (1 μM) for 24 hrs, estimated from growth rates", "text": "FIG. 1A-FIG. 1C show the survival of phosphatidylserine-expressing AML cells. […] The rectangles indicate the sorted cells. […] About 1000 each of the sorted cells were placed into multi-well plates. When the cells reached sufficient numbers, they were counted at different time points to measure their growth rates. The growth rates were then used to estimate the initial live cell numbers. The following formula was used to calculate the minimal initial live cell numbers: Minimal initial cell number=Total cell population/(growth rate*t)(days to reach the current cell number).\nTo determine whether cells expression high-level of PS expression on the cell surface are destined to die, the viability of c1498 murine AML (Acute Myeloid Leukemia) cells treated with cytarabine (part of a classical chemotherapy regimen for human AML) was examined. Specifically, whether cell surface PS-expressing acute myelocytic leukemia (AML) cells survived was examined. FACS was used to identify and sort cells with high cell surface PS-expression and the ability to survive was measured. FIG. 1A-FIG. 1B). In FIG. 1A, FACS sorting of untreated c1498 cells (in DMEM with 8% FBS). The rectangles indicate the sorted cells. In FIG. 1B, FACS sorting of c1498 cells treated with cytarabine (1 μM) for 24 hrs). […] When the cells reached sufficient numbers, the cells were counted at different time points to measure growth rates. […]"}, "KG1a human AML cell line": {"test_system": "KG1a human AML cell line", "assay": "Phagocytosis assay with THP1-derived macrophages", "type": "cell-based", "conditions": "untreated or doxorubicin-treated cells; 2 hrs incubation; versus isotype control (IgG1)", "description": "THP1 cells transduced with mCherry were differentiated into macrophages following previously established procedures. The macrophages were then incubated with non-treated or doxorubicin-treated KG1a human AML cell line transduced with EGFP in the presence of either isotype control (IgG1) or AnnexinV-IgG1Fc. After 2 hrs of incubation, the macrophages and the KG1a cells they have engulfed were counted.\nThe ability of THP1-derived macrophages to phagocytose control or doxorubicin-treated […] cells was examined. […] Representative fluorescence images of phagocytosis assay. THP1 cells transduced with mCherry were differentiated into macrophages following previously established procedures. The cells were then incubated with non-treated or doxorubicin-treated KG1a human AML cell line transduced with EGFP in the presence of either isotype control (IgG1) or AnnexinV-IgG1Fc. After 2 hrs of incubation, the macrophages and the KG1a cells they have engulfed were counted (FIG. 2A). Quantitative estimates of phagocytosis of KG1a cells by THP1-derived macrophages, the phagocytic index was calculated as: (Average number of KG1a cells engulfed per macrophage)×(percentage of macrophages which have engulfed KG1a cells)×[…] (FIG. 2B)."}, "c1498 AML": {"test_system": "c1498 AML", "assay": "Survival of C57BL/6 mice injected with c1498 AML cells", "type": "in vivo", "conditions": "combination: cytarabine 100 mg/kg i.p. every 12 hrs for 3 times, then Annexin V-Fc i.p. 4 times at 72 hours intervals", "description": "About 2×10^5 c1498 cells were injected into the tail vein of C57BL/6 mice. At 24 hrs after the injection, the mice were treated with 100 mg/kg cytarabine (injected i.p. every 12 hrs for 3 times). At 24 hrs after the last treatment, Annexin V-Fc was given i.p. 4 times at 72 hours intervals. The mice were then observed and sacrificed until they were moribund. Shown were the survival of different mice after they were treated with different antibody and drug combinations.\nWhether Annexin V-IgG1Fc fusion protein can enhance the treatment of c1498 AML in syngeneic mice (C57BL/6) in combination with cytarabine, a commonly used drug for AML treatment, was examined. […] Here, about 2×10^5 c1498 cells were injected into the tail vein of C57BL/6 mice. At 24 hrs after the injection, the mice were treated with 100 mg/kg cytarabine (injected i.p. every 12 hrs for 3 times). At 24 hrs after the last treatment, Annexin V-Fc was given i.p. 4 times at 72 hours intervals. The mice were then observed and sacrificed until they are moribund."}, "[2]": {"conditions": "versus doxorubicin; cited from earlier work"}}, "note": "Where two headings read alike, the source gives them in different places."}
{"compound": "CCc1c2c(nc3ccc(O)cc13)-c1cc3c(c(=O)n1C2)COC(=O)[C@]3(O)CC", "note": "[SN-38, 7-ethyl-10-hydroxy-camptothecin]", "values": [{"measurement": "cytotoxic activity relative to irinotecan", "setting": "various cancer cells", "result": "up to 1,000 fold"}]}
{"compound": "Nc1ccn([C@@H]2O[C@H](CO)[C@@H](O)[C@@H]2O)c(=O)n1", "note": "[cytarabine]", "values": [{"measurement": "viability at 1 µM", "setting": "[1]; read-out: proportion of PS+7AAD+ c1498 cells that remained viable and could proliferate", "result": "~8", "unit": "%"}, {"measurement": "viability at 1 µM", "setting": "[1]; read-out: proportion of PS+7AAD- c1498 cells that remained viable and could proliferate", "result": "~25", "unit": "%"}]}
{"compound": "Annexin V-IgG1Fc fusion protein: Annexin V fused to the Fc domain of IgG1; SEQ ID NO:85 is the form with secretion signal", "values": [{"measurement": "phagocytosis of AML cells by THP1-derived macrophages (phagocytic index)", "setting": "KG1a human AML cell line", "result": "effectively boosted the phagocytosis"}, {"measurement": "median survival of host mice", "setting": "c1498 AML", "result": "> 62", "unit": "days"}]}
{"compound": "calicheamicin", "values": [{"measurement": "potency relative to doxorubicin", "setting": "[2]", "result": "approximately 4000 times"}]}
